Like-named read-outs stand apart in the source and are kept apart here.
What was measured:
Assay type in all cases: cell-based
[1] = system: Human dermal fibroblasts from Friedreich's Ataxia patients; assay: Rescue of BSO-stressed FRDA fibroblasts (Calcein AM viability); conditions: FRDA fibroblasts GM04078, BSO-stressed, read-out: EC50, protection against Friedreich's ataxia
Method: (§1) An initial screen was performed to identify compounds effective for the amelioration of redox disorders. Test samples, 4 reference compounds (Idebenone, decylubiquinone, Trolox and α-tocopherol acetate), and solvent controls were tested for their ability to rescue FRDA fibroblasts stressed by addition of L-buthionine-(S,R)-sulfoximine (BSO), as described in Jauslin et al., Hum. Mol. Genet. 11(24):3055 (2002), Jauslin et al., FASEB J. 17:1972-4 (2003), and International Patent Application WO 2004/003565. […] This specific BSO-mediated cell death can be prevented by administration of antioxidants or molecules involved in the antioxidant pathway, such as α-tocopherol, selenium, or small molecule glutathione peroxidase mimetics. However, antioxidants differ in their potency, i.e. the concentration at which they are able to rescue BSO-stressed FRDA fibroblasts.
MEM (a medium enriched in amino acids and vitamins, catalog no. 1-31F24-I) and Medium 199 (M199, catalog no. 1-21F22-I) with Earle's Balanced Salts, without phenol red, were purchased from Bioconcept. Fetal Calf Serum was obtained from PAA Laboratories. Basic fibroblast growth factor and epidermal growth factor were purchased from PeproTech. Penicillin-streptomycin-glutamine mix, L-buthionine (S,R)-sulfoximine, (+)-α-tocopherol acetate, decylubiquinone, and insulin from bovine pancreas were purchased from Sigma. Trolox (6-hydroxy-2,5,7,8-tetramethylchromane-2-carboxylic acid) was obtained from Fluka. Idebenone was obtained from Chemo Iberica. Calcein AM was purchased from Molecular Probes. Cell culture medium was made by combining 125 ml M199 EBS, 50 ml Fetal Calf Serum, 100 U/ml penicillin, 100 μg/ml streptomycin, 2 mM glutamine, 10 μg/ml insulin, 10 ng/ml EGF, and 10 ng/ml bFGF; MEM EBS was added to make the volume up to 500 ml. A 10 mM BSO solution was prepared by dissolving 444 mg BSO in 200 ml of medium with subsequent filter-sterilization. During the course of the experiments, this solution was stored at +4° C. […]

[2] = system: human dermal fibroblasts from CoQ10 deficient patients harboring a CoQ2 mutation; assay: Rescue of fibroblasts from CoQ10 deficient patients from oxidative stress (similar to Example A); conditions: BSO-stressed, read-out: EC50, protection against CoQ10
Method: [Worded in the source for another cell line; this cell line is reported under the same test.] as §1
Test samples were screened according to the following protocol: • A culture with FRDA fibroblasts was started from a 1 ml vial with approximately 500,000 cells stored in liquid nitrogen. Cells were propagated in 10 cm cell culture dishes by splitting every third day in a ratio of 1:3 until nine plates were available. Once confluent, fibroblasts were harvested. For 54 micro titer plates (96 well-MTP) a total of 14.3 million cells (passage eight) were re-suspended in 480 ml medium, corresponding to 100 μl medium with 3,000 cells/well. The remaining cells were distributed in 10 cm cell culture plates (500,000 cells/plate) for propagation. The plates were incubated overnight at 37° C. in an atmosphere with 95% humidity and 5% CO2 to allow attachment of the cells to the culture plate.
MTP medium (243 μl) was added to a well of the microtiter plate. […]
(§2) 100 μl of PBS containing 1.2 μM Calcein AM were then added to each well. […] After that time the PBS was discarded, the plate gently tapped on a paper towel and fluorescence (excitation/emission wavelengths of 485 nm and 525 nm, respectively) was read on a Gemini fluorescence reader. […]

[3] = system: human dermal fibroblasts from Parkinson's Disease patients; assay: Rescue of fibroblasts from Parkinson's Disease patients from oxidative stress (similar to Example A); conditions: PD fibroblasts AG20439, BSO-stressed, read-out: EC50, protection against Parkinson's
Method: [Worded in the source for another cell line; this cell line is reported under the same test.] as §1
(§3) Test samples were screened according to the following protocol: • A culture with FRDA fibroblasts was started from a 1 ml vial with approximately 500,000 cells stored in liquid nitrogen. […]
as §2

[4] = system: human dermal fibroblasts from LHON patients; assay: Rescue of fibroblasts from LHON patients from oxidative stress (as Example A); conditions: Fibroblast, LHON fibroblasts GM03858, BSO-stressed, read-out: EC50, protection against LHON
Method: [Worded in the source for another cell line; this cell line is reported under the same test.] as §1, §3, §2

| Structure (SMILES) | EC50 [1] | EC50 [2] | EC50 [3] | EC50 ([1]; Homo sapiens) | EC50 ([2]; Homo sapiens, Fibroblast) | EC50 ([3]; Homo sapiens, Fibroblast) | EC50 [4] |
| --- | --- | --- | --- | --- | --- | --- | --- |
| Cc1ccc2c(c1)C1CNCCC1N2 (stereo not drawn) [8-methyl-1,3,4,4a,5,9b-tetrahydro-1H-pyrido[4,3-b]indole] | 4.1 µM | 7 µM | 3.68 µM |  |  |  |  |
| Cc1ccc2c(c1)c1c(n2CCc2ccc(C)nc2)CCN(C)C1 [dimebolin, 2,8-dimethyl-5-(2-(6-methylpyridin-3-yl)ethyl)-2,3,4,5-tetrahydro-1H-pyrido[4,3-b]indole] |  |  |  | 1.9 µM | 0.23 µM |  |  |
| CN1CCc2c(c3ccccc3n2Cc2ccccc2)C1 [5-benzyl-2-methyl-2,3,4,5-tetrahydro-1H-pyrido[4,3-b]indole] |  |  |  | 4.26 µM | 3.35 µM | 0.93 µM | 1.2 µM |
